Measured values taken from PMC6754100 (Journal of the American Chemical Society, 2019).
Structures can show the parent of a compound that is named as a salt.

Molecular target: T1, human ornithine aminotransferase (hOAT) (Homo sapiens, UniProt P04181)
T1 sequence (P04181 26-439): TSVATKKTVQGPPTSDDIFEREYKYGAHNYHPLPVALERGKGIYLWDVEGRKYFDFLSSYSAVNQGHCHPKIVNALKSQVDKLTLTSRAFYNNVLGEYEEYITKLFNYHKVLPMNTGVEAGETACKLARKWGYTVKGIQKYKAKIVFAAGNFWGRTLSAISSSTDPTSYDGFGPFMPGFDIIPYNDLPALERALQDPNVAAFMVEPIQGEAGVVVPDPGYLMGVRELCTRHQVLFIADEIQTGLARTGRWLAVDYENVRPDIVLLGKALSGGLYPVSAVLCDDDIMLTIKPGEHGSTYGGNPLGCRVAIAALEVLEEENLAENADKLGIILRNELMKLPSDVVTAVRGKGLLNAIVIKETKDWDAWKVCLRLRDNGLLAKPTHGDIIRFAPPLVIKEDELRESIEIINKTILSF
Assay: […] Å crystal structure of the inactivated enzyme
Format: biochemical
Details: read-out: Ki

KI (inactivation): 54 µM
SMILES: N[C@H]1C[C@@H](C(=O)O)CC1=C(C(F)(F)F)C(F)(F)F [compound 1, (1S,3S)-3-amino-4-(perfluoropropan-2-ylidene)cyclopentane-1-carboxylic acid hydrochloride]
